Results published in patent US10745377B2, “Piperidine or piperazine linked imidazole and triazole derivatives and methods of use” (MERCK SHARP & DOHME CORP., priority 2013, dated 2020).

Tests used:
Type in all cases: biochemical
CYP3A4 = molecular target: T1, CYP3A4 (Homo sapiens, UniProt P08684); experiment: Cocktail assay for CYPs in human liver microsomes: CYP3A4 (midazolam 1′-hydroxylation); settings: human liver microsomes 0.1 mg/mL, 2 μM midazolam, 10 min at 37° C., 6 concentrations up to 10 μM; read-out: IC50 (nM) CYP3A4
T1 construct: 0.1 mg/mL protein human liver microsomes (BD Gentest); tissue BD Gentest; host or cells: human liver microsomes
Procedure: (§1) Determination of IC50 in a Cocktail Assay for CYPs 1A2, 2C9, 2C19, 2D6 and 3A4
(§2) This assay was performed in a standard 96-well plate design. […] The incubation substrate mix contains 10 μM phenacetin (1A2), 5 μM diclofenac (2C9), 30 μM mephenytoin (2C19), 5 μM dextromethorphan (2D6) and 2 μM midazolam (3A4), 0.1 mg/mL protein human liver microsomes (BD Gentest), 1 mM NAPDH, 3.3 mM MgCl2 and 100 mM potassium phosphate buffer (pH 7.4). The production of the metabolite of each probe substrate was determined after incubation for 10 min at 37° C. Quantitation of the metabolite peak area ratio against an internal standard (tolbutamide) was determined by LC/MS/MS analysis following acetonitrile treatment of the incubations.
(§3) Samples were analyzed in the MRM mode with a SCIEX API-4000 mass spectrometer (Applied Biosystems, Foster City, Calif.), with a Shimadzu LC-20 AD pump (Shimadzu corporation, Kyoto, JP) and a CTC PAL autosampler (Agilent Technologies, Switzerland). A Phenomenex, Luna, 5 μm, 100 A, 2.00×30 mm HPLC column was used for the separation. The mobile phases were: (A) 0.1% formic acid in water and (B) 0.1% formic acid in acetonitrile. The binary gradient was as follows.
(§4) The mass spectrum parameters were as follows:
(§5) The LC/MS/MS parameters for the analytes were as follows.
(§6) The peak area ratio of the analyte to the internal standard was used to quantify the metabolite. The values of peak area ratios in the presence of test compound were compared to those of maximum or minimum controls and were expressed as % inhibition by interpolating between the maximum and minimum peak area ratios. Incubations with no inhibitor were defined as the maxima.
(§7) The following equation was used to calculate the % inhibition: [1−[(X−Low control)/(High control−Low control)]]*100
(§8) For the IC50 calculation, SigmaPlot was used to plot the mean % inhibition versus the test compound concentrations and for non-linear regression analysis of the data. Depending on the range of data points defining the inhibition curve, the data may have been fit to the 4-parameter logistic equation.

CYP1A2 = molecular target: T2, CYP1A2 (Homo sapiens, UniProt P05177); experiment: Cocktail assay for CYPs in human liver microsomes: CYP1A2 (phenacetin O-deethylation); settings: human liver microsomes 0.1 mg/mL, 10 μM phenacetin, 10 min at 37° C., 6 concentrations up to 10 μM; read-out: IC50 (nM) CYP1A2
T2 construct: 0.1 mg/mL protein human liver microsomes (BD Gentest); tissue BD Gentest; host or cells: human liver microsomes
T2 sequence (P05177 1-516): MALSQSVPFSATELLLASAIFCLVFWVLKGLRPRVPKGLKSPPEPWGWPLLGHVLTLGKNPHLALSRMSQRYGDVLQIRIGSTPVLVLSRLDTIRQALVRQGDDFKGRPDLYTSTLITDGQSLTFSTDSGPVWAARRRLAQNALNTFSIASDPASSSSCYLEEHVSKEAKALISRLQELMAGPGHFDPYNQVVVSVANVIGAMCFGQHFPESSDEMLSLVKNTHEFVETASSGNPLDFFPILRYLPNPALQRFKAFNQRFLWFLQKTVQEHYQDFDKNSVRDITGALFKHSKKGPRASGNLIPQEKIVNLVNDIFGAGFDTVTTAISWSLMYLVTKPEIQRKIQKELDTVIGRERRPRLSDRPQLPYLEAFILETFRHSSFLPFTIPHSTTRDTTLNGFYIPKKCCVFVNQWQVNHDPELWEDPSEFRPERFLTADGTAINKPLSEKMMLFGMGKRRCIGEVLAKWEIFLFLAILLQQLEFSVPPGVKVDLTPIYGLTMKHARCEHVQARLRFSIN
Procedure: as §1, §2, §3, §4, §5, §6, §7, §8

CYP2C9 = molecular target: T3, CYP2C9 (Homo sapiens, UniProt P11712); experiment: Cocktail assay for CYPs in human liver microsomes: CYP2C9 (diclofenac 4′-hydroxylation); settings: human liver microsomes 0.1 mg/mL, 5 μM diclofenac, 10 min at 37° C., 6 concentrations up to 10 μM; read-out: IC50 (nM) CYP2C9
T3 construct: 0.1 mg/mL protein human liver microsomes (BD Gentest); tissue BD Gentest; host or cells: human liver microsomes
Procedure: as §1, §2, §3, §4, §5, §6, §7, §8

CYP2C19 = molecular target: T4, CYP2C19 (Homo sapiens, UniProt P33261); experiment: Cocktail assay for CYPs in human liver microsomes: CYP2C19 (mephenytoin 4′-hydroxylation); settings: human liver microsomes 0.1 mg/mL, 30 μM mephenytoin, 10 min at 37° C., 6 concentrations up to 10 μM; read-out: IC50 (nM) CYP2C19
T4 construct: 0.1 mg/mL protein human liver microsomes (BD Gentest); tissue BD Gentest; host or cells: human liver microsomes
Procedure: as §1, §2, §3, §4, §5, §6, §7, §8

CYP2D6 = molecular target: T5, CYP2D6 (Homo sapiens, UniProt P10635); experiment: Cocktail assay for CYPs in human liver microsomes: CYP2D6 (dextromethorphan O-demethylation); settings: human liver microsomes 0.1 mg/mL, 5 μM dextromethorphan, 10 min at 37° C., 6 concentrations up to 10 μM; read-out: IC50 (nM) CYP2D6
T5 construct: 0.1 mg/mL protein human liver microsomes (BD Gentest); tissue BD Gentest; host or cells: human liver microsomes
T5 sequence (P10635 whole entry): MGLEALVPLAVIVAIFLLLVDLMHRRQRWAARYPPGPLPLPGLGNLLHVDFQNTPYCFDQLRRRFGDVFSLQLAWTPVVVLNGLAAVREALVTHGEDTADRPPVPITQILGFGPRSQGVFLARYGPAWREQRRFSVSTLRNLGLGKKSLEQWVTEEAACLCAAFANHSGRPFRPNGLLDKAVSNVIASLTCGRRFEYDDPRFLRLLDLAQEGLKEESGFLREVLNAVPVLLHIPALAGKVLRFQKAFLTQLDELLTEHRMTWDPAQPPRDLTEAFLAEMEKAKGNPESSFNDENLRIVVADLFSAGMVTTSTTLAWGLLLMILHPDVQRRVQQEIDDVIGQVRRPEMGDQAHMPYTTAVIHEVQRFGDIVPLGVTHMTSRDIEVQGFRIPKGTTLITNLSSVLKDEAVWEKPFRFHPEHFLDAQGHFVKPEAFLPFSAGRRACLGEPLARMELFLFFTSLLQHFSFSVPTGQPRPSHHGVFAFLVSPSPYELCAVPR
Procedure: as §1, §2, §3, §4, §5, §6, §7, §8

T4 sequence (P33261 whole entry): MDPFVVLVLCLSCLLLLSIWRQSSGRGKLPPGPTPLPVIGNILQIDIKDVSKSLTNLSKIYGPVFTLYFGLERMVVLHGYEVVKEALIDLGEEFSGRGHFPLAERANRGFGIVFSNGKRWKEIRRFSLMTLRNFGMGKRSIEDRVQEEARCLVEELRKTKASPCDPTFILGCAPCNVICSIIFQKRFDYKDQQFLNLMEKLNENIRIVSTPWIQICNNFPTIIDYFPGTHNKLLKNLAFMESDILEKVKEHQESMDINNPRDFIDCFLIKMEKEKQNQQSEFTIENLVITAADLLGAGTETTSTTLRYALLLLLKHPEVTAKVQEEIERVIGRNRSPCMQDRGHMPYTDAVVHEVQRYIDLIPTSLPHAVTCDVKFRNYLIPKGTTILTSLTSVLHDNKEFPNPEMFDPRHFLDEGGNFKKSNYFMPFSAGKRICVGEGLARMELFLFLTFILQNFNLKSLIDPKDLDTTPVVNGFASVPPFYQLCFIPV
T1 sequence (P08684 whole entry): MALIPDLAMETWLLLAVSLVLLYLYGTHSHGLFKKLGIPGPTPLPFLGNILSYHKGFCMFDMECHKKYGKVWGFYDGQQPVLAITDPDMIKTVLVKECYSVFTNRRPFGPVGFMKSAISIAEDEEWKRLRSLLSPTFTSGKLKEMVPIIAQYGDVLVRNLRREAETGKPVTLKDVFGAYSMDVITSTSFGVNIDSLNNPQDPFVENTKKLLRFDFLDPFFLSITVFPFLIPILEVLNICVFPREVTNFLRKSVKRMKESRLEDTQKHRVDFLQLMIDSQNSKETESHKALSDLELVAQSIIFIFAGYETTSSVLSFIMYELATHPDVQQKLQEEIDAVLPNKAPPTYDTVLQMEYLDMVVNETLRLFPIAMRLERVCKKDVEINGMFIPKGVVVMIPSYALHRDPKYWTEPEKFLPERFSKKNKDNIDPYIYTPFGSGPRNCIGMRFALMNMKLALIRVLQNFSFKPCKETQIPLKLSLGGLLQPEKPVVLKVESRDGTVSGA
T3 sequence (P11712 whole entry): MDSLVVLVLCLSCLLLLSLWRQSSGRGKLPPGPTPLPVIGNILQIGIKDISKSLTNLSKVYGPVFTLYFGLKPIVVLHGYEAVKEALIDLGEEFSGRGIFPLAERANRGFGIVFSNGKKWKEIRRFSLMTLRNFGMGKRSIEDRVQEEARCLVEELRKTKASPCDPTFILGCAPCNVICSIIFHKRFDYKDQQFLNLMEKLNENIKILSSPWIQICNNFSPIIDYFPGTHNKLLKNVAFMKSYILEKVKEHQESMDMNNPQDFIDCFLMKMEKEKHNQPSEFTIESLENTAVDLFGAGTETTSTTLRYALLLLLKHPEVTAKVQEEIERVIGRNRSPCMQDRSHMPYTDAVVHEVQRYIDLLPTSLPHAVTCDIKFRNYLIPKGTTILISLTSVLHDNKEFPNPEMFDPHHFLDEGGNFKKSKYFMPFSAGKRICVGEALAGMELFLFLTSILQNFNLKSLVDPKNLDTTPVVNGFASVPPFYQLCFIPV

Row | Compound | IC50 (CYP3A4) | IC50 (CYP1A2) | IC50 (CYP2C9) | IC50 (CYP2C19) | IC50 (CYP2D6)
1 | C[C@H](c1ccc(F)cc1)n1cncc1CN1CCN(Cc2cn3ccccc3n2)C(=O)C1 [Compound 63, (R)-4-((1-(1-(4-fluorophenyl)ethyl)-1H-imidazol-5-yl)methyl)-1-(imidazo[1,2-a]pyridin-2-ylmethyl)piperazin-2-one] | 46 nM | ≥ 10000 nM | > 10000 nM | > 10000 nM | > 10000 nM
2 | COc1ccc(-c2nc(CN3CCN(Cc4cncn4[C@H](C)c4ccc(F)cc4)CC3=O)no2)cc1 [Compound 64, (R)-4-((1-(1-(4-fluorophenyl)ethyl)-1H-imidazol-5-yl)methyl)-1-((5-(4-methoxyphenyl)-1,2,4-oxadiazol-3-yl)methyl) piperazin-2-one] | 43 nM | 3590 nM | 2860 nM | 4520 nM | 3110 nM
3 | COc1ccc(CNc2ncc(CN3CCN(Cc4cncn4[C@H](C)c4ccc(F)cc4)CC3=O)s2)c(OC)c1 [Compound 65, (R)-1-((2-((2,4-dimethoxybenzyl)amino)thiazol-5-yl)methyl)-4-((1-(1-(4-fluorophenyl)ethyl)-1H-imidazol-5-yl)methyl)piperazin-2-one] | 10 nM | > 10000 nM | 8780 nM | 1340 nM | 3360 nM
4 | C[C@H](c1ccc(F)cc1)n1cncc1CN1CCN(Cc2cnc(N(C)C)s2)C(=O)C1 [Compound 66, (R)-1-((2-(dimethylamino)thiazol-5-yl)methyl)-4-((1-(1-(4-fluorophenyl)ethyl)-1H-imidazol-5-yl)methyl) piperazin-2-one] | 43 nM | > 10000 nM | > 10000 nM | > 10000 nM | > 10000 nM
5 | CNc1ncc(CN2CCN(Cc3cncn3[C@H](C)c3ccc(F)cc3)CC2=O)s1 [Compound 67, (R)-4-((1-(1-(4-fluorophenyl)ethyl)-1H-imidazol-5-yl)methyl)-1-((2-(methylamino)thiazol-5-yl)methyl) piperazin-2-one] | 75 nM | > 10000 nM | > 10000 nM | > 10000 nM | > 10000 nM
6 | C[C@H](c1ccc(F)cc1)n1cncc1CN1CCN(Cc2cnc(N3CCOCC3)s2)C(=O)C1 [Compound 68, (R)-4-((1-(1-(4-fluorophenyl)ethyl)-1H-imidazol-5-yl)methyl)-1-((2-morpholinothiazol-5-yl)methyl)piperazin-2-one] | 80 nM | > 10000 nM | > 10000 nM | > 10000 nM | > 10000 nM
7 | C[C@H](c1ccc(F)cc1)n1cncc1CN1CCN(Cc2cnc(N3CCN(C)CC3)s2)C(=O)C1 [Compound 69, (R)-4-((1-(1-(4-fluorophenyl)ethyl)-1H-imidazol-5-yl)methyl)-1-((2-(4-methylpiperazin-1-yl)thiazol-5-yl)methyl) piperazin-2-one] | 56 nM | > 10000 nM | > 10000 nM | > 10000 nM | > 10000 nM
8 | CCOC(=O)CN1CCN(Cc2cncn2C(C)c2ccccc2-c2ccc(F)cc2)CC1 (centres unmarked) [Compound 70, ethyl 2-(4-((1-(1-(4′-fluoro-[1,1′-biphenyl]-2-yl)ethyl)-1H-imidazol-5-yl)methyl)piperazin-1-yl)acetate] | 15 nM | > 10000 nM | > 10000 nM | 5950 nM | 7680 nM
9 | CC(c1ccccc1-c1ccc(F)cc1)n1cncc1CN1CCN(CCO)CC1 (centres unmarked) [Compound 71, 2-(4-((1-(1-(4′-fluoro-[1,1′-biphenyl]-2-yl)ethyl)-1H-imidazol-5-yl)methyl)piperazin-1-yl) ethanol] | 37 nM | > 10000 nM | > 10000 nM | > 10000 nM | > 10000 nM
10 | COCCN1CCN(Cc2cncn2C(C)c2ccccc2-c2ccc(F)cc2)CC1 (centres unmarked) [Compound 72, 1-((1-(1-(4′-fluoro-[1,1′-biphenyl]-2-yl)ethyl)-1H-imidazol-5-yl)methyl)-4-(2-methoxyethyl) piperazine] | 14 nM | > 10000 nM | > 10000 nM | > 10000 nM | 1170 nM
